Results reported in ChEMBL document CHEMBL1201862, “PubChem BioAssay data set” (2004).
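Values below derive from 48-hour exposures of cells grown in 96-well plates, with endpoints linearly interpolated between the two concentrations bracketing the appropriate inhibition level. GI50 = concentration required for 50% inhibition of growth.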 Activity calls are given as the source filed them. Cut-off read from the data, not from the text of the source: active = GI50 up to about 1.1 µM and inactive = higher.

What was measured:
Test in all cases: growth of human tumour cells (NCI), 48 h
A549 = system: A549
CAKI-1 = system: CAKI-1
HOP-92 = system: HOP-92
K562 = system: K562
KM12 = system: KM12
MDA-MB-435 = system: MDA-MB-435
MOLT-4 = system: MOLT-4
OVCAR-3 = system: OVCAR-3
SF-539 = system: SF-539
SK-MEL-5 = system: SK-MEL-5
SK-OV-3 = system: SK-OV-3
SR = system: SR
TK-10 = system: TK-10
U-251 = system: U-251
UO-31 = system: UO-31
HL-60 = system: HL-60
LOX IMVI = system: LOX IMVI
NCI-H226 = system: NCI-H226
RPMI-8226 = system: RPMI-8226
BT-549 = system: BT-549

Measured: GI50

CC(C)(C)[Si](C)(C)OC1/C(=C/C#N)C(n2ccc(=O)[nH]c2=O)OC1CO (configuration not stated)
inactive: A549 > 100 µM | CAKI-1 > 100 µM | HOP-92 3.01 µM | K562 96.2 µM | KM12 > 100 µM | MDA-MB-435 > 100 µM | MOLT-4 > 100 µM | OVCAR-3 > 100 µM | SF-539 > 100 µM | SK-MEL-5 > 100 µM | SK-OV-3 > 100 µM | SR 42.1 µM | TK-10 > 100 µM | U-251 > 100 µM | UO-31 > 100 µM

CSc1ncnc2c1CCN2
inactive: A549 > 10 µM | CAKI-1 > 10 µM | HL-60 4.29 µM | HOP-92 3.96 µM | K562 4.93 µM | KM12 5.35 µM | LOX IMVI 6.34 µM | MDA-MB-435 2.21 µM | MOLT-4 > 10 µM | NCI-H226 > 10 µM | OVCAR-3 2.87 µM | RPMI-8226 > 10 µM | SK-MEL-5 2.92 µM | SK-OV-3 > 10 µM | SR 1.78 µM | TK-10 > 10 µM | UO-31 50.6 µM

Cc1cc(C)c2c(c1)C(=O)/C(=C/c1ccccc1C(=O)O)C2
inactive: A549 65.6 µM | BT-549 78 µM | CAKI-1 > 100 µM | HL-60 57.7 µM | HOP-92 > 100 µM | K562 52.5 µM | KM12 94.6 µM | LOX IMVI 71.9 µM | MOLT-4 34.4 µM | NCI-H226 30.9 µM | OVCAR-3 22.5 µM | RPMI-8226 55.1 µM | SF-539 25.9 µM | SK-MEL-5 59.8 µM | SR 62.4 µM | TK-10 > 100 µM | U-251 35.7 µM | UO-31 > 100 µM

O=C(Nc1ccc(Cl)cc1)c1cccc([N+](=O)[O-])c1O
inactive: A549 3.65 µM | CAKI-1 3.19 µM | HL-60 2.07 µM | HOP-92 1.61 µM | K562 2.58 µM | KM12 4.53 µM | LOX IMVI 3.74 µM | MOLT-4 2.5 µM | NCI-H226 2.33 µM | OVCAR-3 1.81 µM | RPMI-8226 1.6 µM | SF-539 4.18 µM | SK-MEL-5 1.75 µM | SK-OV-3 2.96 µM | SR 4.76 µM | TK-10 3.72 µM | U-251 2.7 µM | UO-31 1.98 µM

COC(=O)C12C3C4C5(C(=O)OC)C(C1C35C(=O)N(C(C)C)C(C)C)C42C(=O)N(C(C)C)C(C)C (configuration not stated)
inactive: A549 > 45.9 µM | CAKI-1 > 50 µM | HL-60 > 36.3 µM | HOP-92 > 50 µM | K562 > 47.4 µM | KM12 > 50 µM | LOX IMVI > 27.1 µM | MOLT-4 > 50 µM | NCI-H226 > 50 µM | OVCAR-3 > 50 µM | RPMI-8226 > 36.3 µM | SF-539 > 50 µM | SK-MEL-5 > 50 µM | SK-OV-3 > 50 µM | SR > 50 µM | TK-10 > 50 µM | U-251 > 50 µM | UO-31 > 50 µM

Cc1cc(N=C2C=C(Br)C(=O)C(Br)=C2)cc(CN(CC(=O)O)CC(=O)O)c1O
inactive: A549 > 100 µM | CAKI-1 > 100 µM | HL-60 > 100 µM | K562 > 100 µM | MDA-MB-435 > 100 µM | MOLT-4 > 100 µM | NCI-H226 > 100 µM | OVCAR-3 > 100 µM | RPMI-8226 > 100 µM | SF-539 > 100 µM | SK-MEL-5 > 100 µM | SK-OV-3 > 100 µM | SR > 100 µM | U-251 > 100 µM | UO-31 > 100 µM

CC(C)C1NC(=O)[C@H](C)OC(=O)[C@@H](C(C)C)NC(=O)[C@@H](C)OC(=O)C(C(C)C)NC(=O)[C@H](C)OC1=O (some centres not stated)
inactive: A549 > 100 µM | CAKI-1 > 100 µM | HL-60 > 100 µM | HOP-92 > 100 µM | K562 > 41.7 µM | KM12 > 88.7 µM | LOX IMVI > 49.3 µM | MOLT-4 > 100 µM | NCI-H226 > 100 µM | OVCAR-3 > 100 µM | RPMI-8226 > 47.9 µM | SF-539 > 50.9 µM | SK-MEL-5 > 100 µM | SK-OV-3 > 100 µM | SR 29.8 µM | TK-10 > 100 µM | U-251 > 68.4 µM | UO-31 > 100 µM

CCCN(CCC)C(=O)Cc1c2n(c3ccccc13)CCCc1ccccc1-2
inactive: A549 13.8 µM | CAKI-1 14.8 µM | HL-60 15.4 µM | HOP-92 4.2 µM | K562 12.5 µM | KM12 12.6 µM | LOX IMVI 15.4 µM | MOLT-4 12.9 µM | NCI-H226 15.1 µM | OVCAR-3 16 µM | RPMI-8226 14.4 µM | SF-539 14.9 µM | SK-MEL-5 14.3 µM | SK-OV-3 15.2 µM | SR 5.21 µM | TK-10 15.7 µM | U-251 15.7 µM | UO-31 14.1 µM
